Measured values as given in patent US8247407B2, priority 2007, dated 2012).
Counter-ions that a name gives are not always drawn.

Legend:
[1] = test system: rats with alloxan diabetes; assay: Hypoglycemic activity, alloxan diabetes model in rats (Example 1); type: in vivo, rat
Method: The pharmaceutical compositions for determination of anti-diabetic action had the following composition: active compound—1 g, potato starch—1 g, water—100 ml.
(§1) The comparison of anti-diabetic action of compounds was carried out using a standard model of alloxan diabetes and metmorphin as a comparative drug. The alloxan diabetes was induced by a single subcutaneous injection of water solution of alloxan hydrate (ICN Biomedicals, USA) at a dose of 150 mg/kg to rats weighting 180-200 g that have fasted for 24 hours. The following animal groups were studied: intact rats, diabetic non-treated rats, diabetic rats receiving Polfa-Kutno Ltd.″ metmorphin daily (for 23 days, 200 mg/kg); diabetic rats receiving daily (for 20 days) the abovementioned pharmaceutical compositions containing, as an active components, the compounds described in this invention: MC-200-MC-225. The compounds were administered intragastrically once a day in starch gel at a dose of 50 mg/kg rat weight.
(§2) The experimental drug doses were selected assuming the expected therapeutic doses for man and previously determined toxic doses (LD50 of studied compounds was approximately 500-1,000 mg/kg). The metmorphin dose for rats was extrapolated from the therapeutic dose for man. Drug administration was started on the third day after alloxan injection when blood glucose level increased approximately 3-fold as compared to control value. Each group consisted of 20 animals of both genders.

[2] = test system: white rats with experimental diabetes (alloxan diabetes); assay: Anti-diabetic, hypolipidemic and hypocholesteremic activity, alloxan diabetes model in rats (Example 2); type: in vivo, rat; conditions: compounds 50 mg/kg, metmorphin 200 mg/kg daily
Method: as §1, §2
Pharmaceutical compositions for determination of anti-diabetic action had the same composition as that given in Example I.
The comparison of the anti-diabetic action of compounds was carried out using a standard model of alloxan diabetes, as described in Example I, and metmorphin as a comparative drug.
In the course of experiment, the following parameters were recorded: animal general condition, water consumption, body mass, levels of glucose, total lipids, tri-glycerides, serum blood cholesterol, and glycosylated hemoglobin, using the generally accepted techniques (Laboratory methods of studies in clinical practice, V. V. Menshikov, Ed., Moscow, “Medicine”, 1987).

[3] = diabetic rats' blood, in 10 days, compounds 50 mg/kg intragastrically once a day in starch gel, metmorphin 200 mg/kg daily
[4] = diabetic rats' blood, in 20 days, compounds 50 mg/kg intragastrically once a day in starch gel, metmorphin 200 mg/kg daily

| Compound | Glucose content, mmol/l, in 10 days [1, 3] | Glucose content, mmol/l, in 20 days [1, 4] | also measured |
| --- | --- | --- | --- |
| CCOC(=O)c1c(CN(C)C)n(C)c2cc(-c3cccnc3)c3c(c12)CN(C)CO3 | 5.6 ± 0.3 mmol/L | 5.4 ± 0.5 mmol/L | – |
| CCOC(=O)c1c(CSc2ccc(C)cc2)n(C)c2cc(Br)c(O)c(CN(C)C)c12 [MC-201, 1-methyl-2-p-toluilthiomethyl-3-carbethoxy-4-dimethyl-aminomethyl-5-hydroxy-6-bromoindole] | 6.4 ± 0.4 mmol/L | 6.2 ± 0.3 mmol/L | – |
| CCOC(=O)c1c(CSc2ccc(CC)cc2)n(C)c2cc(Br)c(O)c(CN(C)C)c12 [MC-202, 1-methyl-2-(p-ethyl)-phenyl-thiomethyl-3-carbethoxy-4-dimethylaminomethyl-5-hydroxy-6-bromoindole] | 7.3 ± 0.5 mmol/L | 7.0 ± 0.4 mmol/L | – |
| CCOC(=O)c1c(CSc2ccccc2)n(-c2ccc(C)cc2)c2cc(Br)c(O)c(CN(C)C)c12 [MC-204, 1-p-toluyl-2-phenylthiomethyl-3-carbethoxy-4-dimethylaminomethyl-5-hydroxy-6-bromoindole] | 6.4 ± 0.3 mmol/L | 6.2 ± 0.3 mmol/L | – |
| CCOC(=O)c1c(CSc2ccccc2)n(Cc2ccccc2)c2cc(Br)c(O)c(CN(C)C)c12 [MC-205, 1-benzyl-2-phenylthiomethyl-3-carbethoxy-4-dimethylaminomethyl-5-hydroxy-6-bromoindole] | 8.4 ± 0.6 mmol/L | 8.1 ± 0.5 mmol/L | – |
| CCOC(=O)c1c(CSCc2ccccc2)n(C)c2cc(Br)c(O)c(CN(C)C)c12 [MC-206, 1-methyl-2-benzylthiomethyl-3-carbethoxy-4-dimethylaminomethyl-5-hydroxy-6-bromoindole] | 11.2 ± 0.7 mmol/L | 10.8 ± 0.6 mmol/L | – |
| CCOC(=O)c1c(CN2CCCC2)n(C)c2cc(-c3cccnc3)c(O)cc12 [MC-207, 1-methyl-2-pyrrolidinyl-1-methyl-3-carbethoxy-5-hydroxy-6-(pyridine-3-yl)indole] | – | – | Body mass ([2]; in 10 days): 186 ± 10 g; Cholesterol ([2]; in 10 days): 2.5 ± 0.3 mmol/L; Daily water consumption ([2]; in 10 days): 24 ± 5 mL; Glucose ([2]; in 10 days): 5.5 ± 0.3 mmol/L; Glycosylated hemoglobin ([2]; in 10 days): 5.1 ± 0.3 mol %; Percent of survived rats ([2]; in 10 days): 100%; Total lipids ([2]; in 10 days): 10.2 ± 0.5 g/L; Tri-glycerides ([2]; in 10 days): 2.5 ± 0.2 mmol/L; β-lipoproteins ([2]; in 10 days): 2.0 ± 0.2 g/L; Body mass ([2]; in 20 days): 182 ± 10 g; Cholesterol ([2]; in 20 days): 1.5 ± 0.2 mmol/L; Daily water consumption ([2]; in 20 days): 20 ± 5 mL; Glucose ([2]; in 20 days): 5.0 ± 0.2 mmol/L; Glycosylated hemoglobin ([2]; in 20 days): 5.0 ± 0.3 mol %; Percent of survived rats ([2]; in 20 days): 90%; Total lipids ([2]; in 20 days): 10.2 ± 0.3 g/L; Tri-glycerides ([2]; in 20 days): 1.8 ± 0.2 mmol/L; β-lipoproteins ([2]; in 20 days): 2.1 ± 0.2 g/L; Glucose content, mmol/l, in 10 days ([1]; rat, in vivo): 5.5 ± 0.2 mmol/L; Glucose content, mmol/l, in 20 days ([1]; rat, in vivo): 5.0 ± 0.3 mmol/L |
| CCOC(=O)c1c(CN(C)C)n(C)c2cc(-c3cccnc3)c(O)cc12 [MC-208, 1-methyl-2-dimethylaminomethyl-3-carbethoxy-5-hydroxy-6-(pyridine-3-yl)indole] | 9.8 ± 0.4 mmol/L | 9.5 ± 0.4 mmol/L | – |
| CCOC(=O)c1c(CS(=O)(=O)c2ccccc2)n(C)c2cc(-c3cccnc3)c(O)c(CN(C)C)c12 [MC-210, 1-methyl-2-phenylsulfonylmethyl-3-carbethoxy-4-dimethylaminomethyl-5-hydroxy-6-(pyridine-3-yl)indole] | 5.4 ± 0.2 mmol/L | 5.3 ± 0.3 mmol/L | – |
| CCOC(=O)c1c(CN(C)C)n(C)c2cc(-c3cccnc3)c(O)c(CN3CCCC3)c12 [MC-211, 1-methyl-2-dimethylaminomethyl-3-carbethoxy-4-pyrrolidinomethyl-5-hydroxy-6-(pyridine-3-yl)indole trihydrochloride] | 5.0 ± 0.2 mmol/L | 4.8 ± 0.2 mmol/L | – |
| CCOC(=O)c1c(CN2CCCC2)n(C)c2cc(-c3cccnc3)c(O)c(CN(C)C)c12 [MC-212, 1-methyl-2-pyrrolidinomethyl-3-carbethoxy-4-dimethylaminomethyl-5-hydroxy-6-(pyridine-3-yl)indole trihydrochloride] | 5.2 ± 0.3 mmol/L | 5.1 ± 0.3 mmol/L | – |
| CCOC(=O)c1c(CS(=O)(=O)c2ccccc2)n(C)c2cc(-c3cccnc3)c(O)c(CNC)c12 [MC-214, 1-methyl-2-phenylsulfonylmethyl-3-carbethoxy-4-methylaminomethyl-5-hydroxy-6-pyridinyl-3 indole dihydrochloride] | 10.2 ± 0.8 mmol/L | 9.9 ± 0.7 mmol/L | – |
| CCOC(=O)c1c(CSc2ccccc2)n(C)c2cc(-c3cccnc3)c(O)c(CN(C)C)c12 [MC-215, 1-methyl-2-phenylthiomethyl-3-carbethoxy-4-dimethylaminomethyl-5-hydroxy-6-pyridinyl-3 indole] | 5.6 ± 0.2 mmol/L | 5.4 ± 0.3 mmol/L | – |
| CCOC(=O)c1c(CSc2ccccc2)n(C)c2cc(C#N)c(O)c(CN(C)C)c12 [MC-216, 1-methyl-2-phenylthiomethyl-3-carbethoxy-4-dimethylaminomethyl-5-hydroxy-6-cyano indole] | 8.4 ± 0.4 mmol/L | 8.1 ± 0.4 mmol/L | – |
| CCOC(=O)c1c(C[S+]([O-])Cc2ccccc2OC)n(C)c2cc(Br)c(O)c(CNC(=N)N)c12 (stereo not drawn) [MC-218, 1-methyl-2-(o-methoxy)-benzylsulfinylmethyl-3-carbethoxy-4-guanidinomethyl-5-hydroxy-6-bromoindole hydrochloride] | 7.2 ± 0.4 mmol/L | 7.1 ± 0.4 mmol/L | – |
| CCOC(=O)c1c(CSCc2ccccc2)n(C2CC2)c2cc(Br)c(O)c(CNC(=N)N)c12 [MC-219, 1-cyclopropyl-2-benzylthiomethyl-3-carbethoxy-4-guanidinomethyl-5-hydroxy-6-bromoindole] | – | – | Glucose content, mmol/l, in 10 days ([1]; rat, in vivo): 9.3 ± 0.6 mmol/L; Glucose content, mmol/l, in 20 days ([1]; rat, in vivo): 9.0 ± 0.5 mmol/L |
| CCOC(=O)c1c(C[S+]([O-])Cc2ccc(F)cc2)n(C)c2cc(Br)c(O)c(CN3CCOCC3)c12 (stereo not drawn) [MC-220, 1-methyl-2-(p-fluor)-benzylsulfinylmethyl-3-carbethoxy-4--4-morpholinomethyl-5-hydroxy-6-bromoindole hydrochloride] | 5.9 ± 0.2 mmol/L | 5.8 ± 0.2 mmol/L | – |
| CCOC(=O)c1c(C[S+]([O-])Cc2ccc(F)c(F)c2)n(C2CC2)c2cc(Br)c(O)c(CN3CCN(C)CC3)c12 (stereo not drawn) [MC-221, 1-cyclopropyl-2-(3,4-difluor)benzylsulfinyl-methyl-3-carbethoxy-4-(N-methyl)-piperazinomethyl-5-hydroxy-6-bromoindole dihydrochloride] | 7.3 ± 0.4 mmol/L | 7.2 ± 0.4 mmol/L | – |
| CCOC(=O)c1c(CS(=O)(=O)c2ccccc2)n(C)c2cc(Br)c(O)c(CN(C)C)c12 [MC-222, 1-methyl-2-phenylsulfonylmethyl-3-carbethoxy-4-dimethylaminomethyl-5-hydroxy-6-bromoindole] | 6.4 ± 0.3 mmol/L | 6.2 ± 0.3 mmol/L | – |
| CCOC(=O)c1c(C[S+]([O-])c2ccccc2)n(C)c2cc(Br)c(O)c(CN(C)C)c12 (stereo not drawn) [MC-223, 1-methyl-2-phenylsulfinylmethyl-3-carbethoxy-4-dimethylaminomethyl-5-hydroxy-6-bromoindole] | 8.4 ± 0.6 mmol/L | 8.2 ± 0.6 mmol/L | – |
| CCOC(=O)c1c(C[S+]([O-])c2ccccc2)n(C)c2cc(Br)c(O)cc12 (stereo not drawn) [MC-225, 1-methyl-2-phenylsulfinylmethyl-3-carbethoxy-5-hydroxy-6-bromoindole] | 8.2 ± 0.5 mmol/L | 7.9 ± 0.4 mmol/L | – |
